Results reported in article PMC12481569, “Novltex: A New Class of Antibiotics with Potent Activity against Multidrug-Resistant Bacterial Pathogens–Design, Synthesis, and Biological Evaluation” (Journal of Medicinal Chemistry, 2025).
In brackets after ≈: the same amount, converted by molar mass. Several values for one entry are separate records, joined by “and”; a condition that tells them apart may be missing. Equal values may be shown once. Read-outs that look alike come from different tables or passages of the source. Positions of bridges follow the written chain, without caps; N, C: chain ends. Non-standard residues stand in square brackets, D forms with d. Residues, ends and D or L forms follow the SMILES beside them. d(aIle) = CC[C@H](C)[C@@H](N)C(=O)O; dChg = N[C@@H](C(=O)O)C1CCCCC1

How the values were obtained:
Assay in all cases: microbe, parasite or virus in culture
[1] = test system: Multidrug-Resistant (MDR) E. faecium; details: for MIC: Enterococcus faecium
Experimental: (§1) We further evaluated analogue 12 against multidrug-resistant (MDR) strains of S. aureus (acquired from the NARSA collection) and MDR E. faecium (acquired from International Health Management Associates, IHMA, Europe Sarl), comparing its activity to various classes of clinically used antibiotics (Table ).
(§2) MICs were performed as previously reported 4. For MIC testing all peptides were dissolved in DMSO.
(§3) Bacterial cultures were grown overnight on Mueller-Hinton Agar (MHA) plates and adjusted to a final inoculum of 10^5 – 10^6 CFU/mL. 100 µl of ino culum in Meuller -Hinton broth (MHB) was mixed with equal volume of peptides (dissolved in MHB) at 2x their concentration in a 96 well plate . For daptomycin MIC determination, the same protocol was followed with the addition of 50 mg/L calcium chloride to the medium. MIC values were determined in the media contain ing polysorbate 80 (0.002%, v/v) to prevent non -specific adsorption of the peptides to plastic surfaces. The final peptides concentrations ranged from 0.0625 – 32 µg/mL. The 96 well plates were then incubated at 37 °C for 24 h. All the experiments were performed in two independent duplicates and the MIC was determined as the lowest concentration in which no visible growth was observed.
(§4) Antibiotics MIC break points ( µg/mL)
(§5) Table. S4: Susceptibility cut-off values (MIC breakpoints) for various clinical antibiotics. […]

[2] = test system: Multidrug-Resistant (MDR) S. aureus; details: for MIC: Staphylococcus aureus; for susceptibility/resistance of the S. aureus isolates based on the MIC breakpoints: four MDR S. aureus isolates
Experimental: as §1, §2, §3, §4, §5

MRSA ATCC 33591 = format: cell-based, Staphylococcus aureus; details: for MIC against MRSA ATCC 33591: 24 h, two independent duplicates; for fold decrease in antibacterial activity (MIC) compared to analogue 12: MRSA ATCC 33591
Experimental: as §2
as §3, with “observed. […]” for “observed.”

[3] = 24 h, read-out: MIC, Enterococcus faecium 1563254
[4] = 24 h, read-out: MIC, Enterococcus faecium 1581582
[5] = 24 h, read-out: MIC, Enterococcus faecium 1766686
[6] = 24 h, read-out: MIC, Staphylococcus aureus NR 45914
[7] = 24 h, read-out: MIC, Staphylococcus aureus NR 45926
[8] = 24 h, read-out: MIC, Staphylococcus aureus NR 45930
[9] = 24 h, read-out: MIC, Staphylococcus aureus NR 46062
[10] = broth dilution in MHB with 0.002% v/v polysorbate 80, inoculum 10^5-10^6 CFU/mL, 37 °C, no visible growth, Table 1
[11] = Table 2, MHB with 0.002% polysorbate 80, 37 °C

CC1(C)S[C@@H]2[C@H](NC(=O)[C@H](N)c3ccccc3)C(=O)N2[C@H]1C(=O)O [Ampicillin]
MIC [1, 3]: > 32 µg/mL
MIC [1, 4]: > 32 µg/mL
MIC [1, 5]: > 32 µg/mL
MIC [2, 6]: 2 µg/mL (≈ 5.72 µM)
MIC [2, 7]: 32 µg/mL (≈ 91.6 µM)
MIC [2, 8]: 8 µg/mL (≈ 22.9 µM)
MIC [2, 9]: 8 µg/mL (≈ 22.9 µM)
susceptibility/resistance of the S. aureus isolates based on the MIC breakpoints [2]: 3 out of 4 isolates showed resistance

CO/N=C(\C(=O)N[C@@H]1C(=O)N2C(C(=O)O)=C(COC(C)=O)CS[C@H]12)c1csc(N)n1 [Cefotaxime]
MIC [1, 3]: > 32 µg/mL
MIC [1, 4]: > 32 µg/mL
MIC [1, 5]: > 32 µg/mL
MIC [2, 6]: 4 µg/mL (≈ 8.78 µM)
MIC [2, 7]: 16 µg/mL (≈ 35.1 µM)
MIC [2, 8]: 8 µg/mL (≈ 17.6 µM)
MIC [2, 9]: 16 µg/mL (≈ 35.1 µM)

C[C@H]1COc2c(N3CCN(C)CC3)c(F)cc3c(=O)c(C(=O)O)cn1c23 [Levofloxacin]
MIC [1, 3]: 32 µg/mL (≈ 88.6 µM)
MIC [1, 4]: 32 µg/mL (≈ 88.6 µM)
MIC [1, 5]: 32 µg/mL (≈ 88.6 µM)
MIC [2, 6]: 1 µg/mL (≈ 2.77 µM)
MIC [2, 7]: 4 µg/mL (≈ 11.1 µM)
MIC [2, 8]: > 32 µg/mL
MIC [2, 9]: 32 µg/mL (≈ 88.6 µM)
susceptibility/resistance of the S. aureus isolates based on the MIC breakpoints [2]: 3 out of 4 isolates showed resistance

CC(=O)NC[C@H]1CN(c2ccc(N3CCOCC3)c(F)c2)C(=O)O1 [Linezolid]
MIC [1, 3]: 16 µg/mL (≈ 47.4 µM)
MIC [1, 4]: 1 µg/mL (≈ 2.96 µM)
MIC [1, 5]: 1 µg/mL (≈ 2.96 µM)
MIC ([1]; read-out: MIC, two E. faecium clinical isolates that remained susceptible to linezolid): 1 µg/mL (≈ 2.96 µM)
MIC [2, 6]: 2 µg/mL (≈ 5.93 µM)
MIC [2, 7]: 32 µg/mL (≈ 94.9 µM)
MIC [2, 8]: 4 µg/mL (≈ 11.9 µM)
MIC [2, 9]: 16 µg/mL (≈ 47.4 µM)
susceptibility/resistance of the S. aureus isolates based on the MIC breakpoints [2]: 3 out of 4 isolates showed resistance

CC(C)C[C@@H]1NC(=O)[C@@H](CC(C)C)NC(=O)[C@H](C)NC(=O)[C@@H](NC(=O)[C@H](CO)NC(=O)[C@@H](CCCCN)NC(=O)[C@@H](CC(C)C)NC(=O)[C@@H](N)Cc2ccccc2)[C@@H](C)OC1=O [analogue 1]
MIC against MRSA ATCC 33591 (MRSA ATCC 33591; [10]): 8 µg/mL (≈ 9.15 µM)

CC(C)C[C@@H]1NC(=O)[C@@H](CC(C)C)NC(=O)[C@H](C)NC(=O)[C@H](NC(=O)[C@H](CO)NC(=O)[C@@H](CCCCN)NC(=O)[C@@H](CC(C)C)NC(=O)[C@@H](N)Cc2ccccc2)[C@H](C)OC1=O [analogue 2]
MIC against MRSA ATCC 33591 (MRSA ATCC 33591; [10]): 32 µg/mL (≈ 36.6 µM)

CC(C)C[C@H](NC(=O)[C@H](N)Cc1ccccc1)C(=O)N[C@@H](CCCCN)C(=O)N[C@H](CO)C(=O)N[C@H]1C(=O)N[C@@H](C)C(=O)N[C@@H](CC(C)C)C(=O)N[C@@H](CC(C)C)C(=O)O[C@H]1C [analogue 3]
MIC against MRSA ATCC 33591 (MRSA ATCC 33591; [10]): 32 µg/mL (≈ 36.6 µM)

CC(C)C[C@@H]1NC(=O)[C@H](C)NC(=O)[C@H](NC(=O)[C@H](CO)NC(=O)[C@@H](CCCCN)NC(=O)[C@@H](CC(C)C)NC(=O)[C@@H](N)Cc2ccccc2)[C@H](C)OC(=O)[C@H](CC(C)C)NC1=O [analogue 4]
MIC against MRSA ATCC 33591 (MRSA ATCC 33591; [10]): 2 to 4 µg/mL
MIC against MRSA ATCC 33591 (MRSA ATCC 33591; broth dilution in MHB with 0.002% v/v polysorbate 80, inoculum 10^5-10^6 CFU/mL, 37 °C, no visible growth, Table 1, listed as Novltex analogue 4): 4 µg/mL (≈ 4.58 µM)

CC(C)C[C@H](NC(=O)[C@H](N)Cc1ccccc1)C(=O)N[C@H](CCCCN)C(=O)N[C@@H](CO)C(=O)N[C@H]1C(=O)N[C@@H](C)C(=O)N[C@@H](CC(C)C)C(=O)N[C@@H](CC(C)C)C(=O)O[C@H]1C [analogue 5]
MIC against MRSA ATCC 33591 (MRSA ATCC 33591; [10]): > 32 µg/mL

CC(C)C[C@@H]1NC(=O)[C@H](C)NC(=O)[C@H](NC(=O)[C@@H](CO)NC(=O)[C@H](CCCCN)NC(=O)[C@@H](CC(C)C)NC(=O)[C@@H](N)Cc2ccccc2)[C@H](C)OC(=O)[C@H](CC(C)C)NC1=O [analogue 6]
MIC against MRSA ATCC 33591 (MRSA ATCC 33591; [10]): > 32 µg/mL

CC(C)C[C@@H]1NC(=O)[C@H](C)NC(=O)[C@H](NC(=O)[C@H](CO)NC(=O)[C@H](CCCCN)NC(=O)[C@@H](CC(C)C)NC(=O)[C@H](N)Cc2ccccc2)[C@H](C)OC(=O)[C@H](CC(C)C)NC1=O [analogue 7]
MIC against MRSA ATCC 33591 (MRSA ATCC 33591; [10]): > 32 µg/mL and 32 µg/mL

CC(C)C[C@@H]1NC(=O)[C@H](C)NC(=O)[C@H](NC(=O)[C@H](CO)NC(=O)[C@H](CCCCN)NC(=O)[C@H](CC(C)C)NC(=O)[C@@H](N)Cc2ccccc2)[C@H](C)OC(=O)[C@H](CC(C)C)NC1=O [analogue 8]
MIC against MRSA ATCC 33591 (MRSA ATCC 33591; [10]): > 32 µg/mL

CC(C)C[C@@H]1NC(=O)[C@H](C)NC(=O)[C@H](NC(=O)[C@@H](CO)NC(=O)[C@@H](CCCCN)NC(=O)[C@@H](CC(C)C)NC(=O)[C@H](N)Cc2ccccc2)[C@H](C)OC(=O)[C@H](CC(C)C)NC1=O [analogue 9]
MIC against MRSA ATCC 33591 (MRSA ATCC 33591; [10]): 16 µg/mL (≈ 18.3 µM)

CC[C@H](C)[C@@H]1NC(=O)[C@H](CC(C)C)NC(=O)[C@H](C)NC(=O)[C@H](NC(=O)[C@H](CO)NC(=O)[C@@H](CCCCN)NC(=O)[C@@H](CC(C)C)NC(=O)[C@@H](N)Cc2ccccc2)[C@H](C)OC1=O [analogue 10] (H-F[dL][dK]S[dT]ALI; ester 5-C)
MIC against MRSA ATCC 33591 (MRSA ATCC 33591; [10]): 8 µg/mL (≈ 9.15 µM)

CC(C)C[C@@H]1NC(=O)[C@H](C)NC(=O)[C@H](NC(=O)[C@H](CO)NC(=O)[C@@H](CCCCN)NC(=O)[C@H](NC(=O)[C@@H](N)Cc2ccccc2)C2CCCCC2)[C@H](C)OC(=O)[C@H](CC(C)C)NC1=O [analogue 11, Leu2Chg–Novltex] (H-F[dChg][dK]S[dT]ALL; ester 5-C)
fold decrease in antibacterial activity (MIC) compared to analogue 12 (MRSA ATCC 33591): 32 fold
MIC against MRSA ATCC 33591 (MRSA ATCC 33591; [11]): 8 µg/mL (≈ 8.89 µM)

CC(C)C[C@@H]1NC(=O)[C@H](C)NC(=O)[C@H](NC(=O)[C@H](CO)NC(=O)[C@@H](CCCCN)NC(=O)[C@@H](Cc2c[nH]c3ccccc23)NC(=O)[C@@H](N)Cc2ccccc2)[C@H](C)OC(=O)[C@H](CC(C)C)NC1=O [analogue 13, Leu2Trp–Novltex] (H-F[dW][dK]S[dT]ALL; ester 5-C)
MIC against MRSA ATCC 33591 (MRSA ATCC 33591; [11]): > 32 µg/mL

CC(C)C[C@@H]1NC(=O)[C@H](C)NC(=O)[C@H](NC(=O)[C@H](CO)NC(=O)[C@@H](CCCCN)NC(=O)[C@@H](Cc2ccccc2)NC(=O)[C@@H](N)Cc2ccccc2)[C@H](C)OC(=O)[C@H](CC(C)C)NC1=O [analogue 14, Leu2Phe–Novltex] (H-F[dF][dK]S[dT]ALL; ester 5-C)
MIC against MRSA ATCC 33591 (MRSA ATCC 33591; [11]): 8 µg/mL (≈ 8.81 µM)

CC(C)C[C@@H]1NC(=O)[C@H](C)NC(=O)[C@H](NC(=O)[C@H](CO)NC(=O)[C@@H](CCCCN)NC(=O)[C@@H](Cc2ccc(O)cc2)NC(=O)[C@@H](N)Cc2ccccc2)[C@H](C)OC(=O)[C@H](CC(C)C)NC1=O [analogue 15, Leu2Tyr–Novltex] (H-F[dY][dK]S[dT]ALL; ester 5-C)
MIC against MRSA ATCC 33591 (MRSA ATCC 33591; [11]): >32 µg/mL

CC[C@H](C)[C@@H](NC(=O)[C@@H](N)Cc1ccccc1)C(=O)N[C@H](CCCCN)C(=O)N[C@@H](CO)C(=O)N[C@H]1C(=O)N[C@@H](C)C(=O)N[C@@H](CC(C)C)C(=O)N[C@@H](CC(C)C)C(=O)O[C@H]1C [analogue 16, Leu2 D-allo-Ile–Novltex] (H-F[d(aIle)][dK]S[dT]ALL; ester 5-C)
fold decrease in antibacterial activity (MIC) compared to analogue 12 (MRSA ATCC 33591): 64 fold
MIC against MRSA ATCC 33591 (MRSA ATCC 33591; [11]): 16 µg/mL (≈ 18.3 µM)

Clovibactin
MIC, Enterococcus faecium 1563254 ([1]; MDR clinical isolate 1563254, MHB, 0.002% polysorbate 80, 37 °C, 24 h, daptomycin with 50 mg/L calcium chloride): 0.063 µg/mL
MIC, Enterococcus faecium 1581582 ([1]; MDR clinical isolate 1581582, MHB, 0.002% polysorbate 80, 37 °C, 24 h, daptomycin with 50 mg/L calcium chloride): 0.25 µg/mL
MIC, Enterococcus faecium 1766686 ([1]; MDR clinical isolate 1766686, MHB, 0.002% polysorbate 80, 37 °C, 24 h, daptomycin with 50 mg/L calcium chloride): 0.25 µg/mL
MIC, Staphylococcus aureus NR 45914 ([2]; MDR strain NR 45914, MHB, 0.002% polysorbate 80, 37 °C, 24 h, daptomycin with 50 mg/L calcium chloride): 0.063 µg/mL
MIC, Staphylococcus aureus NR 45926 ([2]; MDR strain NR 45926, MHB, 0.002% polysorbate 80, 37 °C, 24 h, daptomycin with 50 mg/L calcium chloride): 0.063 µg/mL
MIC, Staphylococcus aureus NR 45930 ([2]; MDR strain NR 45930, MHB, 0.002% polysorbate 80, 37 °C, 24 h, daptomycin with 50 mg/L calcium chloride): 0.25 µg/mL
MIC, Staphylococcus aureus NR 46062 ([2]; MDR strain NR 46062, MHB, 0.002% polysorbate 80, 37 °C, 24 h, daptomycin with 50 mg/L calcium chloride): 0.063 µg/mL
